Target: TLR2 (Homo sapiens, UniProt O60603)
Test: TLR2 agonist screening assay, HEK-Blue TLR2 reporter cell line (NF-kB-driven SEAP, absorbance at 600 nm)
Format: cell-based
Set-up: host or cells: HEK-293 (HEK-Blue TLR2 reporter cell line)
Conditions: HEK-Blue TLR2 reporter cells, agonist mode; average of all runs (Table 4)
Summary of the method: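 EC50 values come from 600 nm absorbance of SEAP-converted substrate after overnight agonist exposure. The reporter line was HEK-293 engineered with TLR2 and an NF-kB-SEAP construct, seeded at about 40,000 cells per well 16-24 h beforehand. Compounds were added at 1% final DMSO.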

TLR2, sequence (O60603 21-784): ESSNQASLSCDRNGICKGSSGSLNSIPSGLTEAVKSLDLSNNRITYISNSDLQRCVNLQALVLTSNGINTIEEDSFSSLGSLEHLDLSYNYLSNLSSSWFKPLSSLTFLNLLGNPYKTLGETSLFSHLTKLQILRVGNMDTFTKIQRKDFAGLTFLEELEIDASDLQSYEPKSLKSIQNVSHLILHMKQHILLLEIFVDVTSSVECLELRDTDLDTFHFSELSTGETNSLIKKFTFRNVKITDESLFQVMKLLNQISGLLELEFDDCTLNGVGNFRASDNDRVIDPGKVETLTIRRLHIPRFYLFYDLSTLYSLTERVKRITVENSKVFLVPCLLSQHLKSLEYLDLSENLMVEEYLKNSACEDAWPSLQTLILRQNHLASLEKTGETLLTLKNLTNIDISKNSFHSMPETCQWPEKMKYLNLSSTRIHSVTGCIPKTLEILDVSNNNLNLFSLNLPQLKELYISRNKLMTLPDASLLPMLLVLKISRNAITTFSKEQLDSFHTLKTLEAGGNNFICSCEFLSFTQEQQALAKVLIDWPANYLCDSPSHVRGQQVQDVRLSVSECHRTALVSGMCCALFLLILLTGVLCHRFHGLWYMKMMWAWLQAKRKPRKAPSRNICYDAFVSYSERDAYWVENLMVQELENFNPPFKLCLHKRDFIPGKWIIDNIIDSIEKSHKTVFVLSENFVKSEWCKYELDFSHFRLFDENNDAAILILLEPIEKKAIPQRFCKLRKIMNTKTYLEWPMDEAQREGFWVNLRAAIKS

EC50 [µM] | Structure (SMILES)
> 1 | CCCCCCCCCCCCCNC(=O)N[C@H]1CN(c2nnc(-c3ccc(C(=O)N4C[C@@H](C(=O)N[C@H]5C[C@@H]5c5ccccc5)[C@H](C(=O)N[C@H]5C[C@@H]5c5ccccc5)C4)cc3)[nH]2)C[C@@H]1OC [Compound 237, (3S,4S)-1-(4-(5-((3S,4S)-3-methoxy-4-(3-tridecylureido)pyrrolidin-1-yl)-4H-1,2,4-triazol-3-yl)benzoyl)-N3,N4-bis((1S,2R)-2-phenylcyclopropyl)pyrrolidine-3,4-dicarboxamide]
0.351 to 1 | CCCCCCCCCCCCCNC(=O)N[C@H]1CN(C(=O)Nc2ccc(C(=O)N3C[C@@H](C(=O)N[C@H]4C[C@@H]4c4ccccc4)[C@H](C(=O)N[C@H]4C[C@@H]4c4ccccc4)C3)cc2)C[C@@H]1OC [Compound 238, (3S,4S)-1-(4-((3S,4S)-3-methoxy-4-(3-tridecylureido)pyrrolidine-1-carboxamido)benzoyl)-N3,N4-bis((1S,2R)-2-phenylcyclopropyl)pyrrolidine-3,4-dicarboxamide]
0.0001 to 0.05 | CCCCCCCCCC(=O)N[C@@H](COC(=O)Nc1ccc(C(=O)N2C[C@@H](C(=O)N[C@H]3C[C@@H]3c3ccccc3)[C@H](C(=O)N[C@H]3C[C@@H]3c3ccccc3)C2)cc1)C(=O)NCCCCCC [Compound 239, (S)-2-decanamido-3-(hexylamino)-3-oxopropyl (4-((3S,4S)-3,4-bis(((1S,2R)-2-phenylcyclopropyl)carbamoyl)pyrrolidine-1-carbonyl)phenyl)carbamate]
> 1 | CCCCCCCCCC(=O)N[C@@H](CN1C(=O)c2ccc(C(=O)N3C[C@@H](C(=O)N[C@H]4C[C@@H]4c4ccccc4)[C@H](C(=O)N[C@H]4C[C@@H]4c4ccccc4)C3)cc2C1=O)C(=O)NCCCCCC [Compound 240, (3S,4S)-1-(2-((S)-2-decanamido-3-(hexylamino)-3-oxopropyl)-1,3-dioxoisoindoline-5-carbonyl)-N3,N4-bis((1S,2R)-2-phenylcyclopropyl)pyrrolidine-3,4-dicarboxamide]
0.051 to 0.35 | CCCCCCCCCC(=O)N[C@@H](CN1Cc2ccc(C(=O)N3C[C@@H](C(=O)N[C@H]4C[C@@H]4c4ccccc4)[C@H](C(=O)N[C@H]4C[C@@H]4c4ccccc4)C3)cc2C1=O)C(=O)NCCCCCC [Compound 241, (3S,4S)-1-(2-((S)-2-decanamido-3-(hexylamino)-3-oxopropyl)-3-oxoisoindoline-5-carbonyl)-N3,N4-bis((1S,2R)-2-phenylcyclopropyl)pyrrolidine-3,4-dicarboxamide]
0.051 to 0.35 | CCCCCCCCCC(=O)N[C@@H](CN1Cc2cc(C(=O)N3C[C@@H](C(=O)N[C@H]4C[C@@H]4c4ccccc4)[C@H](C(=O)N[C@H]4C[C@@H]4c4ccccc4)C3)ccc2C1=O)C(=O)NCCCCCC [Compound 242, (3S,4S)-1-(2-((S)-2-decanamido-3-(hexylamino)-3-oxopropyl)-1-oxoisoindoline-5-carbonyl)-N3,N4-bis((1S,2R)-2-phenylcyclopropyl)pyrrolidine-3,4-dicarboxamide]
0.0001 to 0.05 | CCCCCCCCCC(=O)N[C@@H](Cc1nnc(-c2ccc(C(=O)N3C[C@@H](C(=O)N[C@H]4C[C@@H]4c4ccccc4)[C@H](C(=O)N[C@H]4C[C@@H]4c4ccccc4)C3)cc2)s1)C(=O)NCCCCCC [Compound 243, (3S,4S)-1-(4-(5-((S)-2-decanamido-3-(hexylamino)-3-oxopropyl)-1,3,4-thiadiazol-2-yl)benzoyl)-N3,N4-bis((1S,2R)-2-phenylcyclopropyl)pyrrolidine-3,4-dicarboxamide]
0.351 to 1 | CCCCCCCCCCCCCNC(=O)N[C@H]1CN(c2ncc(-c3ccc(C(=O)N4C[C@@H](C(=O)N[C@H]5C[C@@H]5c5ccccc5)[C@H](C(=O)N[C@H]5C[C@@H]5c5ccccc5)C4)cc3)s2)C[C@@H]1OC [Compound 244, (3S,4S)-1-(4-(2-((3S,4S)-3-methoxy-4-(3-tridecylureido)pyrrolidin-1-yl)thiazol-5-yl)benzoyl)-N3,N4-bis((1S,2R)-2-phenylcyclopropyl)pyrrolidine-3,4-dicarboxamide]
> 1 | CCCCCCCCCCCCCNC(=O)N[C@H]1CN(c2nc3cc(C(=O)N4C[C@@H](C(=O)N[C@H]5C[C@@H]5c5ccccc5)[C@H](C(=O)N[C@H]5C[C@@H]5c5ccccc5)C4)ccc3o2)C[C@@H]1OC [Compound 245, (3S,4S)-1-(2-((3S,4S)-3-methoxy-4-(3-tridecylureido)pyrrolidin-1-yl)benzo[d]oxazole-5-carbonyl)-N3,N4-bis((1S,2R)-2-phenylcyclopropyl)pyrrolidine-3,4-dicarboxamide]
> 1 | CCCCCCCCCC(=O)N[C@@H](CNc1nc2cc(C(=O)N3C[C@@H](C(=O)N[C@H]4C[C@@H]4c4ccccc4)[C@H](C(=O)N[C@H]4C[C@@H]4c4ccccc4)C3)ccc2o1)C(=O)NCCCCCC [Compound 246, (3S,4S)-1-(2-(((S)-2-decanamido-3-(hexylamino)-3-oxopropyl)amino)benzo[d]oxazole-5-carbonyl)-N3,N4-bis((1S,2R)-2-phenylcyclopropyl)pyrrolidine-3,4-dicarboxamide]
> 1 | CCCCCCCCCCCCCNC(=O)N[C@H]1CN(c2nc3ccc(C(=O)N4C[C@@H](C(=O)N[C@H]5C[C@@H]5c5ccccc5)[C@H](C(=O)N[C@H]5C[C@@H]5c5ccccc5)C4)cc3o2)C[C@@H]1OC [Compound 247, (3S,4S)-1-(2-((3S,4S)-3-methoxy-4-(3-tridecylureido)pyrrolidin-1-yl)benzo[d]oxazole-6-carbonyl)-N3,N4-bis((1S,2R)-2-phenylcyclopropyl)pyrrolidine-3,4-dicarboxamide]
> 1 | CCCCCCCCCC(=O)NC(Cn1cnc2ccc(C(=O)N3C[C@@H](C(=O)N[C@H]4C[C@@H]4c4ccccc4)[C@H](C(=O)N[C@H]4C[C@@H]4c4ccccc4)C3)cc2c1=O)C(=O)NCCCCCC (stereo partly drawn) [Compound 248, (3S,4S)-1-(3-(2-decanamido-3-(hexylamino)-3-oxopropyl)-4-oxo-3,4-dihydroquinazoline-6-carbonyl)-N3,N4-bis((1S,2R)-2-phenylcyclopropyl)pyrrolidine-3,4-dicarboxamide]
> 1 | CCCCCCCCCCCCCCNC(=O)[C@@H]1CN(C(=O)c2ccc(C(=O)N3C[C@@H](C(=O)N[C@H]4C[C@@H]4c4ccccc4)[C@H](C(=O)N[C@H]4C[C@@H]4c4ccccc4)C3)cc2)CCN1C(=O)C(C)C [Compound 250, (3S,4S)-1-(4-((S)-4-isobutyryl-3-(tetradecylcarbamoyl)piperazine-1-carbonyl)benzoyl)-N3,N4-bis((1S,2R)-2-phenylcyclopropyl)pyrrolidine-3,4-dicarboxamide]
> 1 | CCCCCCCCCCCCCCNC(=O)[C@@H]1CN(C(=O)c2ccc(C(=O)N3C[C@@H](C(=O)N[C@H]4C[C@@H]4c4ccccc4)[C@H](C(=O)N[C@H]4C[C@@H]4c4ccccc4)C3)cc2)CCN1C(=O)C(C)(C)C [Compound 251, (3S,4S)—N3,N4-bis((1S,2R)-2-phenylcyclopropyl)-1-(4-((S)-4-pivaloyl-3-(tetradecylcarbamoyl)piperazine-1-carbonyl)benzoyl)pyrrolidine-3,4-dicarboxamide]
> 1 | CCCCCCCCCCCCCCNC(=O)[C@@H]1CN(C(=O)c2ccc(C(=O)N3C[C@@H](C(=O)N[C@H]4C[C@@H]4c4ccccc4)[C@H](C(=O)N[C@H]4C[C@@H]4c4ccccc4)C3)cc2)CCN1C(=O)CC(C)C [Compound 252, (3S,4S)-1-(4-((S)-4-(3-methylbutanoyl)-3-(tetradecylcarbamoyl)piperazine-1-carbonyl)benzoyl)-N3,N4-bis((1S,2R)-2-phenylcyclopropyl)pyrrolidine-3,4-dicarboxamide]
> 1 | CCCCCCCCCCCCCCNC(=O)[C@@H]1CN(C(=O)c2ccc(C(=O)N3C[C@@H](C(=O)N[C@H]4C[C@@H]4c4ccccc4)[C@H](C(=O)N[C@H]4C[C@@H]4c4ccccc4)C3)cc2)CCN1C(=O)CC(C)(C)C [Compound 253, (3S,4S)-1-(4-((S)-4-(3,3-dimethylbutanoyl)-3-(tetradecylcarbamoyl)piperazine-1-carbonyl)benzoyl)-N3,N4-bis((1S,2R)-2-phenylcyclopropyl)pyrrolidine-3,4-dicarboxamide]
> 1 | CCCCCCCCCCCCCNC(=O)[C@@H]1CN(C(=O)c2ccc(C(=O)N3C[C@@H](C(=O)N[C@H]4C[C@@H]4c4ccccc4)[C@H](C(=O)N[C@H]4C[C@@H]4c4ccccc4)C3)cc2)CCN1C(C)=O [Compound 254, (3S,4S)-1-(4-((S)-4-acetyl-3-(tridecylcarbamoyl)piperazine-1-carbonyl)benzoyl)-N3,N4-bis((1S,2R)-2-phenylcyclopropyl)pyrrolidine-3,4-dicarboxamide]
> 1 | CCCCCCCCCCCCNC(=O)[C@@H]1CN(C(=O)c2ccc(C(=O)N3C[C@@H](C(=O)N[C@H]4C[C@@H]4c4ccccc4)[C@H](C(=O)N[C@H]4C[C@@H]4c4ccccc4)C3)cc2)CCN1C(C)=O [Compound 255, (3S,4S)-1-(4-((S)-4-acetyl-3-(dodecylcarbamoyl)piperazine-1-carbonyl)benzoyl)-N3,N4-bis((1S,2R)-2-phenylcyclopropyl)pyrrolidine-3,4-dicarboxamide]
> 1 | CCCCCCCCCCCNC(=O)[C@@H]1CN(C(=O)c2ccc(C(=O)N3C[C@@H](C(=O)N[C@H]4C[C@@H]4c4ccccc4)[C@H](C(=O)N[C@H]4C[C@@H]4c4ccccc4)C3)cc2)CCN1C(C)=O [Compound 256, (3S,4S)-1-(4-((S)-4-acetyl-3-(undecylcarbamoyl)piperazine-1-carbonyl)benzoyl)-N3,N4-bis((1S,2R)-2-phenylcyclopropyl) pyrrolidine-3,4-dicarboxamide]

Structure (SMILES) | EC50 [µM]
CCCCCCCCCC(=O)N[C@@H](Cc1nc(-c2ccc(C(=O)N3C[C@@H](C(=O)N[C@H]4C[C@@H]4c4ccccc4)[C@H](C(=O)N[C@H]4C[C@@H]4c4ccccc4)C3)cc2)no1)C(=O)NCCCCCC [Compound 249, (3S,4S)-1-(4-(5-((S)-2-decanamido-3-(hexylamino)-3-oxopropyl)-1,2,4-oxadiazol-3-yl)benzoyl)-N3,N4-bis((1S,2R)-2-phenylcyclopropyl)pyrrolidine-3,4-dicarboxamide] | > 1

— patent US11951094B2, “TLR2 modulator compounds, pharmaceutical compositions and uses thereof” (Axial Therapeutics, Inc., priority 2020, dated 2024)
